Source: US5719291A, “Cyclohexane derivatives” (Hoffmann-La Roche Inc., priority 1991, dated 1998)
Values after ≈ are worked out from the molar mass of the structure shown. Where a name gives a salt, the structure may show the parent alone. Read-outs that look alike come from different tables or passages of the source.

Legend:
[1] = tested on: Aspergillus fumigatus; assay: In vitro antifungal activity, MIC (Method A); assay type: cell-based; settings: 3 days, 27° C.; for MIC: Aspergillus fumigatus, 72 h; for Antifungal activity MIC: 1×10^5 cells/ml, pH 7.0
Description: (§1) The in vitro antifungal activities of representative compounds of the present invention were measured by determining the minimal inhibitory concentration (MIC), which is the concentration of an antifungal at which no fungal growth can be observed.
(§2) The MICs were determined by the microbroth dilution procedure according to NCCLS with the following minor modifications (Galgiani et al., Antimicrob. Agents Chemother., 33, 731 (1989). The medium was solidified with 0.2% low melting point agarose and buffered to pH 7.0 with 0.25%: K2 HPO4 in Yeast Nitrogen Base (Difco Lab.). Inoculum size was 1×10^5 cells/ml, and incubation was carried out for 3 days at 27° C. The MICs ([…]) are shown in Table 1. The reference compound is compound (IA) in U.S. Pat. No. 4,952,604. The compounds used are identified by reference to the Examples in which they were prepared.
(§3) The in vitro antifungal activities of the representative compounds of the present invention shown in Table 1 and Table 2 were measured by determining the minimal inhibitory concentrations (MIC: Method A) or 80% growth inhibition concentration (IC80 : Method B) respectively. MIC is defined as the concentration of an antifungal at which growth of fungi is not observed and IC80 is the concentration where cell turbidity measured at OD630 is reduced by 80%.
(§4) Antifungal activities were determined by either method A or B (see below) using microtest plates according NCCLS with minor modifications (Galgiani et at., Antimicrob. Agents Chemother. 33, 731 (1989)).
(§5) (Method A) The medium was solidified with 0.2% low melting point agarose and buffered to pH 7.0 with 0.25% K2 HPO4 in Yeast Nitrogen Base (Difco Lab.). Inoculum size was 1×10^5 cells/ml, and incubation was carried out for 3 days at 27° C. The reference compound is compound (IA) in U.S. Pat. No. 4,952,604.

[2] = tested on: Candida albicans; assay: In vitro antifungal activity, MIC (Method A); assay type: cell-based; settings: 3 days, 27° C.; for MIC: Candida albicans, 72 h; for Antifungal activity MIC: 1×10^5 cells/ml, pH 7.0
Description: as §1, §2, §3, §4, §5

[3] = tested on: Cryptococcus neoformans; assay: In vitro antifungal activity, MIC (Method A); assay type: cell-based; settings: 3 days, 27° C.; for MIC: Cryptococcus neoformans, 72 h; for Antifungal activity MIC: 1×10^5 cells/ml, pH 7.0
Description: as §1, §2, §3, §4, §5

[4] = Acute toxicity (LD50) by oral administration in mice; assay type: in vivo
[5] = tested on: A. fumigatus; assay: In vitro antifungal activity, IC80 (Method B); assay type: cell-based; settings: Aspergillus fumigatus, read-out: Antifungal activity IC80
Description: as §3, §4
(§6) (Method B) The medium for yeast was buffered to pH 7.0 with 0.25% K2 HPO4 in Yeast Nitrogen Base (Difco Lab.). For the filamentous fungi, 0.2% of low melting point agar was supplemented to the above medium. Inoculum size was 1×10^4 cells/ml, and incubation was carried out for 1-2 days at 27° C. Fluconazole (Pfizer) was used as reference.

[6] = tested on: C. neoformans; assay: In vitro antifungal activity, IC80 (Method B); assay type: cell-based; settings: Cryptococcus neoformans
Description: as §3, §4, §6

[7] = tested on: Candida albicans; assay: In vitro antifungal activity, IC80 (Method B); assay type: cell-based
Description: as §3, §4, §6

[8] = A. fumigatus CF1003, 1×10^4 cells/ml, 1-2 days, 27° C., 0.2% agar
[9] = A. fumigatus CF1004, 1×10^4 cells/ml, 1-2 days, 27° C., 0.2% agar
[10] = pH 7, C. neoformans CY1057, 1×10^4 cells/ml, 1-2 days, 27° C., read-out: Antifungal activity IC80
[11] = pH 7, C. neoformans CY1059, 1×10^4 cells/ml, 1-2 days, 27° C., read-out: Antifungal activity IC80
[12] = pH 7, Candida albicans CY1002, 1×10^4 cells/ml, 1-2 days, 27° C., read-out: Antifungal activity IC80
[13] = pH 7, Candida albicans CY1005, 1×10^4 cells/ml, 1-2 days, 27° C., read-out: Antifungal activity IC80
[14] = pH 7, Candida albicans CY3003, 1×10^4 cells/ml, 1-2 days, 27° C., read-out: Antifungal activity IC80

In the case of `CCCCCCC/C=C/[C@@H]1OC[C@H](C)[C@H](OC)[C@H]1OC(=O)CN` [Example 4, (2S,3R,4S,5S)-4-methoxy-5-methyl-2-[(E)-1-nonenyl]-tetrahydro-2H-pyran-3-ylglycinate trifluoroacetic acid salt], the MIC ([1]; pH 7, Aspergillus fumigatus CF1003, 1×10^5 cells/ml) is reported as 3.13 µg/mL, the MIC ([1]; pH 7, Aspergillus fumigatus CF1004, 1×10^5 cells/ml) is reported as 3.13 µg/mL and the MIC ([1]; pH 7, Aspergillus fumigatus CF1023, 1×10^5 cells/ml) is reported as 1.56 µg/mL. It also gave an MIC ([2]; pH 7, Candida albicans CY1002, 1×10^5 cells/ml) of 100 µg/mL, an MIC ([2]; pH 7, Candida albicans CY1005, 1×10^5 cells/ml) of 50 µg/mL and an MIC ([2]; pH 7, Candida albicans CY3003, 1×10^5 cells/ml) of 50 µg/mL. The MIC ([3]; pH 7, Cryptococcus neoformans CY1057, 1×10^5 cells/ml) was 3.13 µg/mL, the MIC ([3]; pH 7, Cryptococcus neoformans CY1059, 1×10^5 cells/ml) was 6.25 µg/mL and the MIC ([3]; pH 7, Cryptococcus neoformans CY1061, 1×10^5 cells/ml) was 12.5 µg/mL. For the same compound, the LD50 ([4]; mouse, in vivo, read-out: LD50) was > 500 mg/kg.

With `CCCCCCC/C=C/[C@@H]1OC[C@H](C)C=C1Cn1ccnc1` [Example 60, 1-[[(2S,5R)-5,6-dihydro-5-methyl-2-[(E)-1-nonenyl]-2H-pyran-3-yl]methyl]-1H-imidazole] the LD50 ([4]; mouse, in vivo, read-out: LD50) was > 500 mg/kg.

With `CCCCCCCCO[C@@H]1CCC(C)(C)[C@H](OC)[C@@H]1Cn1cncn1` [Example 69, 1-[[(1R,2R,6R)-2-methoxy-3,3-dimethyl-6-octyloxycyclohexyl]methyl]-1H-1,2,4-triazole] the LD50 ([4]; mouse, in vivo, read-out: LD50) was > 500 mg/kg.

`CO[C@@H]1[C@@H](Cn2cncn2)[C@H](CCc2ccc(F)cc2F)CCC1(C)C` [Example 80, 1-[[(1R,2R,6S)-6-(2,4-difluorophenethyl)-2-methoxy-3,3-dimethylcyclohexyl]methyl]-1H-1,2,4-triazole] showed an IC80 [5, 8] of 93 µg/mL (≈ 256 µM), an IC80 [5, 9] of 40 µg/mL (≈ 110 µM) and an IC80 [6, 10] of 11 µg/mL (≈ 30.3 µM). The IC80 [6, 11] was 12 µg/mL (≈ 33 µM), the IC80 [7, 12] was 0.35 µg/mL (≈ 0.963 µM) and the IC80 [7, 13] was 0.65 µg/mL (≈ 1.79 µM). It also gave an IC80 [7, 14] of 0.19 µg/mL (≈ 0.523 µM).

For `CCc1ccc(CC[C@@H]2CCC(C)(C)[C@H](OC)[C@H]2Cn2cncn2)cc1` [Example 81, 1-[[(1R,2R,6R)-6-(4-ethylphenyl)ethyl-2-methoxy-3,3-dimethyl-cyclohexyl]methyl]-1H-1,2,4-triazole], the IC80 [5, 8] was > 200 µg/mL, the IC80 [5, 9] was > 200 µg/mL and the IC80 [6, 10] was 1.5 µg/mL (≈ 4.22 µM). For the same compound, the IC80 [6, 11] was 1.5 µg/mL (≈ 4.22 µM), the IC80 [7, 12] was 0.0075 µg/mL (≈ 0.0211 µM) and the IC80 [7, 13] was 0.025 µg/mL (≈ 0.0703 µM). For the same compound, the IC80 [7, 14] was 0.0042 µg/mL (≈ 0.0118 µM).

In the case of `CO[C@@H]1[C@@H](Cn2cncn2)[C@H](CCc2ccc(N3CCCC3)cc2)CCC1(C)C` [Example 82, 1-[[(1R,2R,6R)-2-methoxy-3,3-dimethyl-6-[2-(p-pyrrolidinophenyl)ethyl]cyclohexyl]methyl]-1H,1,2,4-triazole], the IC80 [5, 8] is reported as > 200 µg/mL, the IC80 [5, 9] is reported as > 200 µg/mL and the IC80 [6, 10] is reported as > 200 µg/mL. For the same compound, the IC80 [6, 11] was > 200 µg/mL, the IC80 [7, 12] was 0.15 µg/mL (≈ 0.378 µM) and the IC80 [7, 13] was 0.35 µg/mL (≈ 0.883 µM). It also gave an IC80 [7, 14] of 0.17 µg/mL (≈ 0.429 µM).

In the case of `CCc1ccc(OC[C@@H]2CCC(C)(C)[C@H](OC)[C@H]2Cn2cncn2)cc1` [Example 83, 1-[[(1R,2R,6R)-2-methoxy-3,3-dimethyl-6-(4-ethylphenoxy)methyl]methyl]-1H,1,2,4-triazole], the IC80 [5, 8] is reported as > 200 µg/mL, the IC80 [5, 9] is reported as > 200 µg/mL and the IC80 [6, 10] is reported as 0.21 µg/mL (≈ 0.587 µM). It also gave an IC80 [6, 11] of 0.19 µg/mL (≈ 0.531 µM), an IC80 [7, 12] of 0.31 µg/mL (≈ 0.867 µM) and an IC80 [7, 13] of 0.24 µg/mL (≈ 0.671 µM). For the same compound, the IC80 [7, 14] was 0.59 µg/mL (≈ 1.65 µM).

Compound `OC(Cn1cncn1)(Cn1cncn1)c1ccc(F)cc1F` [FCZ, Fluconazole, reference compound] has an IC80 [5] of 150 µg/mL (≈ 490 µM), an IC80 ([6]; pH 7, read-out: Antifungal activity IC80, C. neoformans CY1057, 1×10^4 cells/ml, 1-2 days, 27° C.) of 5.2 µg/mL (≈ 17 µM) and an IC80 ([6]; pH 7, read-out: Antifungal activity IC80, C. neoformans CY1059, 1×10^4 cells/ml, 1-2 days, 27° C.) of 8.6 µg/mL (≈ 28.1 µM). It also gave an IC80 ([7]; pH 7, read-out: Antifungal activity IC80, Candida albicans CY1002, 1×10^4 cells/ml, 1-2 days, 27° C.) of 1.1 µg/mL (≈ 3.59 µM), an IC80 ([7]; pH 7, read-out: Antifungal activity IC80, Candida albicans CY1005, 1×10^4 cells/ml, 1-2 days, 27° C.) of 1.2 µg/mL (≈ 3.92 µM) and an IC80 ([7]; pH 7, read-out: Antifungal activity IC80, Candida albicans CY3003, 1×10^4 cells/ml, 1-2 days, 27° C.) of 1 µg/mL (≈ 3.27 µM).

In the case of “(2S,3R,4S,5S)-5-methyl-2-[(E)-1-nonenyl]-4-propoxy-tetrahydro-2H-pyran-3-ylglycinate trifluoroacetic acid salt [Example 21]”, the “Antifungal activity MIC” value ([1]; Aspergillus fumigatus CF1003) is reported as 12.5 µg/mL, the “Antifungal activity MIC” value ([1]; Aspergillus fumigatus CF1004) is reported as 6.25 µg/mL and the “Antifungal activity MIC” value ([1]; Aspergillus fumigatus CF1023) is reported as 12.5 µg/mL. The “Antifungal activity MIC” value ([2]; Candida albicans CY1002) was 100 µg/mL, the “Antifungal activity MIC” value ([2]; Candida albicans CY1005) was 50 µg/mL and the “Antifungal activity MIC” value ([2]; Candida albicans CY3003) was 100 µg/mL. For the same compound, the “Antifungal activity MIC” value ([3]; Cryptococcus neoformans CY1057) was 12.5 µg/mL, the “Antifungal activity MIC” value ([3]; Cryptococcus neoformans CY1059) was 12.5 µg/mL and the “Antifungal activity MIC” value ([3]; Cryptococcus neoformans CY1061) was 25 µg/mL. For the same compound, the LD50 [4] was “more than 500 mg/kg”.
